Laboratory results: publication PMC5874133 (Science immunology, 2018)
Ends that are not written are not given here.

How the values were obtained:
[1] = system: D222D clone 2 or a MelanA26–35-reactive clone vs. cognate peptide-pulsed LCLs; assay: inhibition of lysis of cognate peptide-pulsed LCLs by CD8^+ T-cell clones; format: cell-based, human; settings: D222D clone 2 or MelanA26–35-reactive clone; 4 h, E/T 1/1; triplicate; Fig. 1F
[2] = system: ZnT8_186–194-reactive CD8^+ T-cell clones; assay: effect on MMr staining of ZnT8_186–194-reactive CD8^+ T-cell clones; format: cell-based, human; settings: normalized MMr fluorescence intensities between clones; Fig. 2B
[3] = target: recombinant HLA-A2 molecules (Homo sapiens, UniProt P04439, D140Y/D185E/D98H/E176V/E277Q/G131W/G231S/I119V/I121R/I166T/I218V/L300P/L318F/N151K/N90K/P208A/P217A/Q86G/Q94H/R138H/R169H/T345S); assay: peptide binding to recombinant HLA-A2
[4] = system: ZnT8_186–194-reactive CD8^+ T-cell clone H017N; format: cell-based, human; settings: peptide-pulsed LCLs, 0.1 µM, 6 h, percent cytokine^+ cells, two experiments, p=0.008, Fig. 7E

Compound	inhibition of lytic activity [1]	Kd [3] [nM]	other results
C[C@H]1CCC/C=C/[C@@H]2C[C@H](O)C[C@H]2[C@H](O)/C=C/C(=O)O1 [brefeldin A]	marginally		
C/C=C/[C@H]1O[C@@](O)([C@@H](C)[C@H](O)[C@H](C)[C@H]2OC(=O)/C(OC)=C/C(C)=C/[C@@H](C)[C@@H](O)[C@@H](CC)[C@@H](O)[C@H](C)C/C(C)=C/C=C/[C@@H]2OC)C[C@@H](O[C@H]2C[C@@H](O)[C@H](OC(N)=O)[C@@H](C)O2)[C@@H]1C [concanamycin A]	inhibited significantly		
Cc1nc(Nc2ncc(C(=O)Nc3c(C)cccc3Cl)s2)cc(N2CCN(CCO)CC2)n1 [dasatinib]			effect on variability of MMr fluorescence intensity [2]: reduced variability
AVAANIVLTV [ZnT8_185–194]		207	
KAANIVLTV [B. stercoris mimotope]			agonist potency relative to native ZnT8_186–194 peptide [4]: stronger agonist potency
VAANIVLTV [ZnT8_186–194]		15	
